In brackets after ≈: the same amount, converted by molar mass.

Data set [1] can be described thus: Inhibition of PRC2 in human G-401 cells assessed as reduction in methylation of H3K27 trimethylation by HTRF assay. The class given is cell-based. Background: In TR-FRET formats the signal depends on donor and acceptor labels being close together.
Data set [2] deals with Polycomb protein EED (Homo sapiens, UniProt O75530). As to the kind of experiment: Binding affinity to EED (unknown origin) assessed as dissociation constant by SPR analysis. Background: In SPR one partner is held on a chip, and binding of the other changes the refractive index at the surface.
Data set [3] can be described thus: Lipophilicity, log D of the compound in Octanol/phosphate buffer at pH 7.4 by shake-flask method. The class given is physicochemical.
Data set [4] can be described thus: Intrinsic clearance in human liver microsomes. The class given is ADME, Microsome. Particulars: read-out: CLH. (Liver microsomes are a subcellular fraction often used to study metabolism.)
The nature of data set [5]: Intrinsic clearance in rat hepatocytes assessed per million cells. It counts as ADME, cell-based, Hepatocyte. Particulars: read-out: CLH.
Data set [6] in a line: Solubility of compound in PBS at pH 7.4 measured for 24 hrs. The class given is physicochemical.

Sequence of Polycomb protein EED (O75530 whole entry): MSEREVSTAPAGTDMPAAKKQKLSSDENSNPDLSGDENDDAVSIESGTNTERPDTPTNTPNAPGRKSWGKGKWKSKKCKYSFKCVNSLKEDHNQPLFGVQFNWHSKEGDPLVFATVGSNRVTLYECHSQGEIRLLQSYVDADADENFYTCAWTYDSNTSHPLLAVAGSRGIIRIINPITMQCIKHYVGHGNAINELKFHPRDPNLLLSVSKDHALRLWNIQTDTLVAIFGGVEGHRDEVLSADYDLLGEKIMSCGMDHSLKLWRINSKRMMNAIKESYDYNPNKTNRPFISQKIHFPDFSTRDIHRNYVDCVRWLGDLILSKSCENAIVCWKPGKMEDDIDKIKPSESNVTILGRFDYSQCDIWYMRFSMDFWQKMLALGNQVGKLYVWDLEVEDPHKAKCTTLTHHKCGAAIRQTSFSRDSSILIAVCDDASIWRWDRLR

A word on the IC50: it is the concentration that gives 50% inhibition. Usually Kd stands for the equilibrium constant for the complex coming apart. As a reminder, the logD is lipophilicity at a set pH, counting ionised and neutral species. For orientation: solubility means how much of the substance goes into solution per volume. Read a high solubility as a readily soluble substance. In the case of `Cc1ncccc1-c1cnc(NCc2c(F)cc(Cl)c3c2CCO3)n2cnnc12`, the IC50 in data set [1] is 16 nM. Besides, the equilibrium dissociation constant (Kd) in data set [2] came to 2400 nM. Moreover, the logD in data set [3] was determined as 3.2. In addition, the microsomal CLint in data set [4] came out at 20 µL/min/mg. Moreover, the hepatocyte CLint in data set [5] was 9 µL/min/1e6 cells. For the same molecule, the concentration in solution in data set [6] (solubility at 24 h) came to 0.2 µM (≈ 0.0822 µg/mL).

For `Cc1ncccc1-c1cnc(NCc2c(F)cc(F)c3c2CCO3)n2cnnc12`, the IC50 in data set [1] turned out to be 11 nM. Besides, the Kd in data set [2] came to 1200 nM. Further, the logD in data set [3] was 2.6. Besides, in data set [4], the microsomal CLint was determined as 9 µL/min/mg. Besides, the hepatocyte CLint in data set [5] is 9 µL/min/1e6 cells. Besides, in data set [6], the concentration in solution (solubility at 24 h) was 4 µM (≈ 1.58 µg/mL).

Regarding `COc1cc(F)c(CNc2ncc(-c3cccnc3C)c3nncn23)c2c1OCC2`, the IC50 in data set [1] was 15500 nM. In addition, the Kd in data set [2] turned out to be 305000 nM. In addition, in data set [3], the logD is 2.3. Moreover, the microsomal CLint in data set [4] worked out at 20 µL/min/mg. In addition, in data set [5], the hepatocyte CLint amounted to 4 µL/min/1e6 cells. Moreover, the solubility at 24 h in data set [6] was 21 µM (≈ 8.53 µg/mL).

As for `Cc1ncccc1-c1cnc(NCc2c(F)cc(N)c3c2CCO3)n2cnnc12`, the half-maximal inhibitory concentration (IC50) in data set [1] stood at 50 nM. Besides, the Kd in data set [2] came out at 500 nM. In addition, the logD in data set [3] came to 1.8. The microsomal CLint in data set [4] stood at 13 µL/min/mg. For the same molecule, in data set [5], the hepatocyte CLint turned out to be 7 µL/min/1e6 cells.

With `Cc1ncccc1-c1cnc(NCc2c(F)cc(O)c3c2CCO3)n2cnnc12`, the half-inhibitory concentration (IC50) in data set [1] is 15 nM. The molecule further registered a logD in data set [3] of 1.8. Moreover, the microsomal CLint in data set [4] was determined as 9 µL/min/mg. The hepatocyte CLint in data set [5] was 50 µL/min/1e6 cells. Moreover, the concentration in solution in data set [6] (solubility at 24 h) was 5 µM (≈ 1.96 µg/mL).

As to `Cc1ncccc1-c1cnc(NCc2c(F)ccc3c2CCO3)n2cnnc12`, the IC50 in data set [1] turned out to be 5 nM. In data set [2], the Kd worked out at 400 nM. This molecule had a logD in data set [3] of 2.5. Besides, the microsomal CLint in data set [4] turned out to be 15 µL/min/mg. For the same molecule, the hepatocyte CLint in data set [5] came out at 6 µL/min/1e6 cells.

For the molecule `Cc1ncccc1-c1cnc(NCc2c(F)cc(C#N)c3c2CCO3)n2cnnc12`, the half-maximal inhibitory concentration (IC50) in data set [1] is 102 nM. Besides, the Kd in data set [2] was 15000 nM. The molecule further registered a log distribution coefficient (logD) in data set [3] of 2.2. In data set [4], the microsomal CLint worked out at 28 µL/min/mg. Moreover, in data set [5], the hepatocyte CLint came to 10 µL/min/1e6 cells. Also, the solubility at 24 h in data set [6] came out at 3 µM (≈ 1.2 µg/mL).

The values above are taken from ChEMBL document CHEMBL4732253, “Free energy perturbation in the design of EED ligands as inhibitors of polycomb repressive complex 2 (PRC2) methyltransferase” (Bioorg Med Chem Lett, 2021).
